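Compound exposure: 48 hours, 5 concentrations, 96-well plates. TGI marks complete inhibition of growth.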
Tests used:
Assay in all cases: inhibition of tumour cell growth, NCI panel, 48 h
CCRF-CEM leukemia = tested on: CCRF-CEM leukemia
RPMI-8226 leukemia = tested on: RPMI-8226 leukemia
786-0 renal = tested on: 786-0 renal
UO-31 renal = tested on: UO-31 renal
IGROV1 ovarian = tested on: IGROV1 ovarian
SR leukemia = tested on: SR leukemia
M14 melanoma = tested on: M14 melanoma
LOX IMVI melanoma = tested on: LOX IMVI melanoma
SK-MEL-2 melanoma = tested on: SK-MEL-2 melanoma
HCT-15 colon = tested on: HCT-15 colon
SW-620 colon = tested on: SW-620 colon
OVCAR-4 ovarian = tested on: OVCAR-4 ovarian
OVCAR-3 ovarian = tested on: OVCAR-3 ovarian
T-47D breast = tested on: T-47D breast
NCI/ADR-RES ovarian = tested on: NCI/ADR-RES ovarian
A498 renal = tested on: A498 renal

## CC(=O)NCCc1c[nH]c2ccc(Cl)cc12
CCRF-CEM leukemia
  TGI: > 100 µM
RPMI-8226 leukemia
  TGI: > 100 µM
786-0 renal
  TGI: > 100 µM
UO-31 renal
  TGI: > 100 µM
IGROV1 ovarian
  TGI: > 100 µM
SR leukemia
  TGI: > 100 µM
M14 melanoma
  TGI: > 100 µM
LOX IMVI melanoma
  TGI: > 100 µM
SK-MEL-2 melanoma
  TGI: > 100 µM
HCT-15 colon
  TGI: > 100 µM
SW-620 colon
  TGI: > 100 µM
OVCAR-4 ovarian
  TGI: > 100 µM
OVCAR-3 ovarian
  TGI: > 100 µM
T-47D breast
  TGI: > 100 µM
NCI/ADR-RES ovarian
  TGI: > 100 µM

## Cc1cc2c(cc1C)[n+](=O)c(C(=O)N1CCN(c3ccc([N+](=O)[O-])cc3)CC1)c(C)n2[O-]
CCRF-CEM leukemia
  TGI: > 100 µM
RPMI-8226 leukemia
  TGI: > 100 µM
786-0 renal
  TGI: 34.8 µM
A498 renal
  TGI: > 100 µM
UO-31 renal
  TGI: > 100 µM
IGROV1 ovarian
  TGI: 87.7 µM
SR leukemia
  TGI: > 100 µM
M14 melanoma
  TGI: > 100 µM
LOX IMVI melanoma
  TGI: > 100 µM
SK-MEL-2 melanoma
  TGI: > 100 µM
HCT-15 colon
  TGI: > 100 µM
SW-620 colon
  TGI: > 100 µM
OVCAR-4 ovarian
  TGI: > 100 µM
OVCAR-3 ovarian
  TGI: > 100 µM
T-47D breast
  TGI: > 100 µM
NCI/ADR-RES ovarian
  TGI: > 100 µM

## O=C1c2ccccc2C(=O)N1CCCCCCNOCCCN1C(=O)c2ccccc2C1=O
CCRF-CEM leukemia
  TGI: > 100 µM
RPMI-8226 leukemia
  TGI: 99.4 µM
786-0 renal
  TGI: > 100 µM
A498 renal
  TGI: 93.8 µM
UO-31 renal
  TGI: > 100 µM
IGROV1 ovarian
  TGI: > 100 µM
SR leukemia
  TGI: > 100 µM
M14 melanoma
  TGI: 61.4 µM
LOX IMVI melanoma
  TGI: > 100 µM
SK-MEL-2 melanoma
  TGI: 47.8 µM
HCT-15 colon
  TGI: > 100 µM
SW-620 colon
  TGI: > 100 µM
OVCAR-4 ovarian
  TGI: 93.3 µM
OVCAR-3 ovarian
  TGI: > 100 µM
T-47D breast
  TGI: 65 µM
NCI/ADR-RES ovarian
  TGI: 70 µM

## CCOC(=O)c1cccc([N+](=O)[O-])c1N
CCRF-CEM leukemia
  TGI: > 100 µM
RPMI-8226 leukemia
  TGI: > 100 µM
786-0 renal
  TGI: > 100 µM
A498 renal
  TGI: > 100 µM
UO-31 renal
  TGI: > 100 µM
IGROV1 ovarian
  TGI: > 100 µM
SR leukemia
  TGI: > 100 µM
M14 melanoma
  TGI: > 100 µM
LOX IMVI melanoma
  TGI: > 100 µM
SK-MEL-2 melanoma
  TGI: > 100 µM
HCT-15 colon
  TGI: > 100 µM
SW-620 colon
  TGI: > 100 µM
OVCAR-4 ovarian
  TGI: > 100 µM
OVCAR-3 ovarian
  TGI: > 100 µM
T-47D breast
  TGI: > 100 µM
NCI/ADR-RES ovarian
  TGI: > 100 µM

## O=C(Nc1ccccc1C(=O)O)/C(=C/c1ccccc1)NC(=O)c1ccccc1
CCRF-CEM leukemia
  TGI: > 100 µM
RPMI-8226 leukemia
  TGI: > 100 µM
786-0 renal
  TGI: > 100 µM
A498 renal
  TGI: > 100 µM
UO-31 renal
  TGI: > 100 µM
IGROV1 ovarian
  TGI: > 100 µM
SR leukemia
  TGI: > 100 µM
M14 melanoma
  TGI: > 100 µM
LOX IMVI melanoma
  TGI: > 100 µM
SK-MEL-2 melanoma
  TGI: > 100 µM
HCT-15 colon
  TGI: > 100 µM
SW-620 colon
  TGI: > 100 µM
OVCAR-3 ovarian
  TGI: > 100 µM
T-47D breast
  TGI: > 100 µM
NCI/ADR-RES ovarian
  TGI: > 100 µM

## COc1ccc(C2=NN(c3ccccc3)C(c3cc4cc(Br)ccc4nc3Cl)C2)cc1 (centres undefined)
CCRF-CEM leukemia
  TGI: > 25 µM
RPMI-8226 leukemia
  TGI: > 25 µM
786-0 renal
  TGI: > 25 µM
UO-31 renal
  TGI: > 25 µM
IGROV1 ovarian
  TGI: > 25 µM
SR leukemia
  TGI: > 25 µM
M14 melanoma
  TGI: > 25 µM
LOX IMVI melanoma
  TGI: > 25 µM
SK-MEL-2 melanoma
  TGI: > 25 µM
HCT-15 colon
  TGI: > 25 µM
SW-620 colon
  TGI: > 25 µM
OVCAR-4 ovarian
  TGI: > 25 µM
OVCAR-3 ovarian
  TGI: > 25 µM
T-47D breast
  TGI: > 25 µM
NCI/ADR-RES ovarian
  TGI: > 25 µM

## Cc1ccc(CS(=O)(=O)C/N=c2\sc3ccccc3nc2/C=C(\O)c2ccc(Cl)cc2)cc1
RPMI-8226 leukemia
  TGI: > 10 µM
786-0 renal
  TGI: > 10 µM
IGROV1 ovarian
  TGI: > 10 µM
SR leukemia
  TGI: > 10 µM
M14 melanoma
  TGI: > 10 µM
LOX IMVI melanoma
  TGI: > 10 µM
HCT-15 colon
  TGI: > 10 µM
SW-620 colon
  TGI: > 10 µM
OVCAR-4 ovarian
  TGI: > 10 µM
OVCAR-3 ovarian
  TGI: > 10 µM
T-47D breast
  TGI: > 10 µM
NCI/ADR-RES ovarian
  TGI: > 10 µM

## Cc1ccc(S(=O)(=O)Oc2ccc(OS(=O)(=O)c3ccc(C)cc3)c3c2C(=O)c2ccccc2C3=O)cc1
CCRF-CEM leukemia
  TGI: > 100 µM
786-0 renal
  TGI: > 100 µM
UO-31 renal
  TGI: > 100 µM
IGROV1 ovarian
  TGI: > 100 µM
SR leukemia
  TGI: > 100 µM
M14 melanoma
  TGI: > 100 µM
LOX IMVI melanoma
  TGI: > 100 µM
SK-MEL-2 melanoma
  TGI: > 100 µM
HCT-15 colon
  TGI: > 100 µM
SW-620 colon
  TGI: > 100 µM
OVCAR-4 ovarian
  TGI: > 100 µM
OVCAR-3 ovarian
  TGI: > 100 µM
T-47D breast
  TGI: > 100 µM
NCI/ADR-RES ovarian
  TGI: > 100 µM

## COc1ccccc1S(=O)Nc1ccccc1 (centres undefined)
CCRF-CEM leukemia
  TGI: > 100 µM
RPMI-8226 leukemia
  TGI: > 100 µM
786-0 renal
  TGI: > 100 µM
UO-31 renal
  TGI: > 100 µM
IGROV1 ovarian
  TGI: > 100 µM
SR leukemia
  TGI: > 100 µM
LOX IMVI melanoma
  TGI: > 100 µM
SK-MEL-2 melanoma
  TGI: > 100 µM
HCT-15 colon
  TGI: > 100 µM
SW-620 colon
  TGI: > 100 µM
OVCAR-4 ovarian
  TGI: > 100 µM
OVCAR-3 ovarian
  TGI: > 100 µM
T-47D breast
  TGI: 95.5 µM
NCI/ADR-RES ovarian
  TGI: > 100 µM

## CCCCNC(=O)Nc1c(C(N)=O)c2n(c1C(=O)OCC)CCCCC2
CCRF-CEM leukemia
  TGI: > 100 µM
RPMI-8226 leukemia
  TGI: > 100 µM
786-0 renal
  TGI: > 100 µM
A498 renal
  TGI: > 100 µM
UO-31 renal
  TGI: > 100 µM
IGROV1 ovarian
  TGI: > 100 µM
SR leukemia
  TGI: > 100 µM
M14 melanoma
  TGI: > 100 µM
LOX IMVI melanoma
  TGI: > 100 µM
SK-MEL-2 melanoma
  TGI: > 100 µM
HCT-15 colon
  TGI: > 100 µM
SW-620 colon
  TGI: > 100 µM
OVCAR-4 ovarian
  TGI: > 100 µM
T-47D breast
  TGI: > 100 µM
NCI/ADR-RES ovarian
  TGI: > 100 µM

## O=C1CC(=O)c2c(Cl)sc(Cl)c21
CCRF-CEM leukemia
  TGI: > 100 µM
786-0 renal
  TGI: > 100 µM
A498 renal
  TGI: > 100 µM
UO-31 renal
  TGI: > 100 µM
IGROV1 ovarian
  TGI: > 100 µM
SR leukemia
  TGI: 75.2 µM
M14 melanoma
  TGI: > 100 µM
LOX IMVI melanoma
  TGI: > 100 µM
SK-MEL-2 melanoma
  TGI: > 100 µM
HCT-15 colon
  TGI: > 100 µM
SW-620 colon
  TGI: > 100 µM
OVCAR-4 ovarian
  TGI: 76.3 µM
OVCAR-3 ovarian
  TGI: > 100 µM
T-47D breast
  TGI: > 100 µM
NCI/ADR-RES ovarian
  TGI: > 100 µM

## O=P1(Oc2ccc(Cl)cc2)OCCS1 (centres undefined)
CCRF-CEM leukemia
  TGI: > 100 µM
RPMI-8226 leukemia
  TGI: > 100 µM
786-0 renal
  TGI: > 100 µM
A498 renal
  TGI: > 100 µM
UO-31 renal
  TGI: > 100 µM
IGROV1 ovarian
  TGI: > 100 µM
SR leukemia
  TGI: > 100 µM
M14 melanoma
  TGI: > 100 µM
LOX IMVI melanoma
  TGI: > 100 µM
SK-MEL-2 melanoma
  TGI: > 100 µM
HCT-15 colon
  TGI: > 100 µM
SW-620 colon
  TGI: > 100 µM
T-47D breast
  TGI: > 100 µM
NCI/ADR-RES ovarian
  TGI: > 100 µM

## CCOC(=O)c1cc2c([nH]1)C(=O)CC1=C2CCN1Cc1ccccc1
CCRF-CEM leukemia
  TGI: 28.6 µM
RPMI-8226 leukemia
  TGI: 16.6 µM
786-0 renal
  TGI: 31 µM
A498 renal
  TGI: 29 µM
UO-31 renal
  TGI: 29.5 µM
IGROV1 ovarian
  TGI: 36 µM
SR leukemia
  TGI: 33.4 µM
LOX IMVI melanoma
  TGI: 29.1 µM
SK-MEL-2 melanoma
  TGI: 42.5 µM
HCT-15 colon
  TGI: 21.6 µM
SW-620 colon
  TGI: 23.3 µM
OVCAR-4 ovarian
  TGI: 26.8 µM
T-47D breast
  TGI: 6.77 µM
NCI/ADR-RES ovarian
  TGI: 43.5 µM

## Cc1c(C(=O)O)c2cc3ccccc3cc2c(=O)n1C
786-0 renal
  TGI: > 10 µM
UO-31 renal
  TGI: > 10 µM
IGROV1 ovarian
  TGI: > 10 µM
SR leukemia
  TGI: > 10 µM
M14 melanoma
  TGI: > 10 µM
LOX IMVI melanoma
  TGI: > 10 µM
SK-MEL-2 melanoma
  TGI: > 10 µM
HCT-15 colon
  TGI: > 10 µM
SW-620 colon
  TGI: > 10 µM
OVCAR-4 ovarian
  TGI: > 10 µM
OVCAR-3 ovarian
  TGI: > 10 µM
T-47D breast
  TGI: > 10 µM
NCI/ADR-RES ovarian
  TGI: > 10 µM

## CC1C/C(=N\N(C)C)C(C#N)(C#N)C1(C#N)C#N (centres undefined)
CCRF-CEM leukemia
  TGI: > 100 µM
RPMI-8226 leukemia
  TGI: 25.5 µM
786-0 renal
  TGI: 14.6 µM
UO-31 renal
  TGI: 30.3 µM
IGROV1 ovarian
  TGI: 38.8 µM
SR leukemia
  TGI: 17.2 µM
M14 melanoma
  TGI: 31.7 µM
LOX IMVI melanoma
  TGI: 19.7 µM
SK-MEL-2 melanoma
  TGI: 48.8 µM
HCT-15 colon
  TGI: 21.1 µM
SW-620 colon
  TGI: > 100 µM
OVCAR-4 ovarian
  TGI: 25.6 µM
OVCAR-3 ovarian
  TGI: 33.9 µM
T-47D breast
  TGI: 37.7 µM
NCI/ADR-RES ovarian
  TGI: 75.8 µM

Reference: PubChem BioAssay (NCI)
